Measured values from patent publication US9278962B2 (Cytokinetics, Inc., priority 2011, dated 2016).

Tested on: rabbit skeletal myofibrils (approximately 90% fast fibers)
Assay: Activation of fast skeletal myofibrils (PUMA coupled-enzyme ATPase assay, AC1.4)
Type: biochemical
Conditions: concentration at which the compound increased enzymatic activity by 40%, calcium at pCa25
Procedure: Rabbit skeletal myofibrils were prepared based upon the method of Herrmann et al. (Biochem. 32(28):7255-7263(1993). Myofibrils were prepared from rabbit psoas muscle purchased from Pel-Freez Biologicals (Arkansas) within 2 days of ordering, stored on ice. Minced muscle was homogenized in 10 volumes of ice-cold “standard” buffer (50 mM Tris, pH 7.4, 0.1 M potassium acetate, 5 mM KCl, 2 mM DTT, 0.2 mM PMSF, 10 μM leupeptin, 5 μM pepstatin, and 0.5 mM sodium azide) containing 5 mM EDTA and 0.5% Triton X-100 using an Omni-Macro homogenizer. Myofibrils were recovered by low speed centrifugation (3000 rpm for 10 minutes) and washed 2 times in the Triton X-100 containing buffer to ensure removal of cellular membrane. Following the Triton washes, myofibrils were washed 3 times in “standard” buffer containing 2 mM magnesium acetate. A final wash in assay buffer (12 mM PIPES, pH 6.8, 60 mM KCl, 1 mM DTT) was performed and brought to 10% sucrose for flash freezing in liquid nitrogen and storage at −80° C.
Fast fiber activators were identified by measuring the enzymatic activity of muscle myofibril preparations using the proprietary PUMA™ (see, e.g., U.S. Pat. Nos. 6,410,254, 6,743,599, 7,202,051, and 7,378,254) assay system. Myofibril preparations consisted of rabbit skeletal muscle (approximately 90% fast fibers) that had been mechanically homogenized and washed with a detergent (triton X-100) to remove cellular membranes. This preparation retained all of the sarcomeric components in a native conformation and the enzymatic activity was still regulated by calcium. Compounds were tested using a myofibril suspension and a level of calcium sufficient to increase enzymatic activity of the myofibrils to 25% of their maximal rate (termed pCa25). Enzymatic activity was tracked via a pyruvate kinase and lactate dehydrogenase-coupled enzyme system. This assay regenerates myosin-produced ADP into ATP by oxidizing NADH, producing an absorbance change at 340 nm. The buffering system was 12 mM Pipes, 2 mM MgCl2, 1 mM DTT at pH 6.8 (PM12 buffer).
Using procedures similar to those described herein, utilizing reagents and intermediates commercially available (e.g., Sigma-Aldrich) or readily synthesized by one of skill in the art, the compounds in Table 2, Table 3, Table 4 and Table 5 were synthesized, characterized and tested. AC1.4 values were determined according to the procedure described in Example 6, and the reported median AC1.4 values are as follows: A=<1 uM; B=1-10 uM; C=10-20 uM; D=>20 uM.

Row | SMILES | Mean AC1.4 (Table 4) | Mean AC1.4 (Table 2) | also measured
1 | NC(=O)c1cccc2sc(NC[C@]3(c4ncccc4F)C[C@H](F)C3)nc12 | D (D=>20 uM) |  | 
2 | CN(CCO)c1nsc(NCC(C)(C)c2ccc(F)cc2)n1 |  | D (D=>20 uM) | 
3 | O=C(Nc1ccn(-c2ccccc2)n1)C1(c2ncccc2F)CCC1 [1-(3-fluoropyridin-2-yl)-N-(1-phenyl-1H-pyrazol-3-yl)cyclobutanecarboxamide] |  |  | Mean AC1.4 (Table 5): D (D=>20 uM)
4 | Cc1cc(NC(=O)C2(c3ncccc3F)CCC2)nn1-c1ccccc1 [1-(3-fluoropyridin-2-yl)-N-(5-methyl-1-phenyl-1H-pyrazol-3-yl)cyclobutanecarboxamide] |  |  | Mean AC1.4 (Table 5): D (D=>20 uM)
5 | CC(C)(CNc1nc(C(O)CO)ns1)c1ccc(F)cc1 (stereo not shown) [1-(5-{[2-(4-fluorophenyl)-2-methylpropyl]amino}-1,2,4-thiadiazol-3-yl)ethane-1,2-diol] |  | B (B=1-10 uM) | 
6 | CC(C)(CNc1nc(CCC(=O)N2CC[C@@H](O)C2)ns1)c1ccc(F)cc1 [1-((3R)-3-hydroxypyrrolidinyl)-3-(5-{[2-(4-fluorophenyl)-2-methylpropyl]amino}(1,2,4-thiadiazol-3-yl))propan-1-one] |  | D (D=>20 uM) | 
7 | CC(C)(CNc1nc(CCC(=O)N2CC[C@H](O)C2)ns1)c1ccc(F)cc1 [1-((3S)-3-hydroxypyrrolidinyl)-3-(5-{[2-(4-fluorophenyl)-2-methylpropyl]amino}(1,2,4-thiadiazol-3-yl))propan-1-one] |  | D (D=>20 uM) | 
8 | CC(C)(CNc1nc(CCN2CCCC(O)C2)ns1)c1ccc(F)cc1 (stereo not shown) [1-[2-(5-{[2-(4-fluorophenyl)-2-methylpropyl]amino}-1,2,4-thiadiazol-3-yl)ethyl]piperidin-3-ol] |  | C (C=10-20 uM) | 
9 | CC(C)(CNc1nc(CCN2CCC(O)CC2)ns1)c1ccc(F)cc1 [1-[2-(5-{[2-(4-fluorophenyl)-2-methylpropyl]amino}-1,2,4-thiadiazol-3-yl)ethyl]piperidin-4-ol] |  | D (D=>20 uM) | 
10 | CC(C)(CNc1nc(CN2CCN(S(C)(=O)=O)CC2)ns1)c1ccc(F)cc1 [1-[(5-{[2-(4-fluorophenyl)-2-methylpropyl]amino}(1,2,4-thiadiazol-3-yl))methyl]-4-(methylsulfonyl)piperazine] |  | C (C=10-20 uM) | 
11 | CC(C)(CNc1nc(CN2CCCC(O)C2)ns1)c1ccc(F)cc1 (stereo not shown) [1-[(5-{[2-(4-fluorophenyl)-2-methylpropyl]amino}-1,2,4-thiadiazol-3-yl)methyl]piperidin-3-ol] |  | D (D=>20 uM) | 
12 | CC(C)(CNc1nc(CN2CCC(O)CC2)ns1)c1ccc(F)cc1 [1-[(5-{[2-(4-fluorophenyl)-2-methylpropyl]amino}-1,2,4-thiadiazol-3-yl)methyl]piperidin-4-ol] |  | D (D=>20 uM) | 
13 | CC(C)(CNc1nc(CN2CCN(C(=O)CO)CC2)ns1)c1ccc(F)cc1 [1-{4-[(5-{[2-(4-fluorophenyl)-2-methylpropyl]amino}(1,2,4-thiadiazol-3-yl))methyl]piperazinyl}-2-hydroxyethan-1-one] |  | D (D=>20 uM) | 
14 | CC(C)(O)c1ccc2nc(NCC(C)(C)c3ccc(F)cc3)sc2c1 [2-(2-(2-(4-fluorophenyl)-2-methylpropylamino)benzo[d]thiazol-6-yl)propan-2-ol] | A (A=<1 uM) |  | 
15 | CN(C)C(=O)c1ccc2nc(NCC(C)(C)c3ccc(F)cc3)sc2c1 [2-(2-(4-fluorophenyl)-2-methylpropylamino)-N,N-dimethylbenzo[d]thiazole-6-carboxamide] | B (B=1-10 uM) |  | 
16 | CNC(=O)c1ccc2nc(NCC(C)(C)c3ccc(F)cc3)sc2c1 [2-(2-(4-fluorophenyl)-2-methylpropylamino)-N-methylbenzo[d]thiazole-6-carboxamide] | B (B=1-10 uM) |  | 

Row | SMILES | Mean AC1.4 (Table 4) | Mean AC1.4 (Table 2) | also measured
17 | CC(C)(CNc1nc2ccc(C(=O)O)cc2s1)c1ccc(F)cc1 [2-(2-(4-fluorophenyl)-2-methylpropylamino)benzo-6-carboxylic acid] | C (C=10-20 uM) |  | 
18 | CC(C)(CNc1nc2c(C#N)cccc2s1)c1ccc(F)cc1 [2-(2-(4-fluorophenyl)-2-methylpropylamino)benzo[d] thiazole-4-carbonitrile] | A (A=<1 uM) |  | 
19 | CC(C)(CNc1nc2c(C(N)=O)cccc2s1)c1ccc(F)cc1 [2-(2-(4-fluorophenyl)-2-methylpropylamino)benzo[d] thiazole-4-carboxamide] | C (C=10-20 uM) |  | 
20 | CC(C)(CNc1nc2cc(C#N)ccc2s1)c1ccc(F)cc1 [2-(2-(4-fluorophenyl)-2-methylpropylamino)benzo[d] thiazole-5-carbonitrile] | B (B=1-10 uM) |  | 
21 | CC(C)(CNc1nc2cc(C(N)=O)ccc2s1)c1ccc(F)cc1 [2-(2-(4-fluorophenyl)-2-methylpropylamino)benzo[d] thiazole-5-carboxamide] | B (B=1-10 uM) |  | 
22 | CC(C)(CNc1nc2ccc(C#N)cc2s1)c1ccc(F)cc1 [2-(2-(4-fluorophenyl)-2-methylpropylamino)benzo[d] thiazole-6-carbonitrile] | B (B=1-10 uM) |  | 
23 | CC(C)(CNc1nc2ccc(C(N)=O)cc2s1)c1ccc(F)cc1 [2-(2-(4-fluorophenyl)-2-methylpropylamino)benzo[d] thiazole-6-carboxamide] | A (A=<1 uM) |  | 
24 | CC(C)(CNc1nc2cccc(C#N)c2s1)c1ccc(F)cc1 [2-(2-(4-fluorophenyl)-2-methylpropylamino)benzo[d] thiazole-7-carbonitrile] | B (B=1-10 uM) |  | 
25 | CC(C)(CNc1nc2cccc(C(N)=O)c2s1)c1ccc(F)cc1 [2-(2-(4-fluorophenyl)-2-methylpropylamino)benzo[d] thiazole-7-carboxamide] | B (B=1-10 uM) |  | 
26 | CC(C)(O)c1ccc(F)c(-c2nnc(NC[C@]3(c4ncccc4F)C[C@H](F)C3)s2)c1 [2-(4-fluoro-3-(5-((3-fluoro-1-(3-fluoropyridin-2-yl)cyclobutyl)methylamino)-1,3,4-thiadiazol-2-yl)phenyl)propan-2-ol] |  |  | Mean AC1.4 (Table 3): B (B=1-10 uM)
27 | N#Cc1ccc2nc(NCCc3ccc(F)cc3)sc2c1 [2-(4-fluorophenethylamino)benzo[d] thiazole-6-carbonitrile] | D (D=>20 uM) |  | 
28 | NC(=O)c1ccc2nc(NCCc3ccc(F)cc3)sc2c1 [2-(4-fluorophenethylamino)benzo[d] thiazole-6-carboxamide] | B (B=1-10 uM) |  | 
29 | Cc1nsc(NC(=O)C(C)(C)c2ccc(F)cc2)n1 [2-(4-fluorophenyl)-2-methyl-N-(3-methyl(1,2,4-thiadiazol-5-yl))propanamide] |  | D (D=>20 uM) | 
30 | CC(C)(C(=O)Nc1nc(-c2ccccc2)ns1)c1ccc(F)cc1 [2-(4-fluorophenyl)-2-methyl-N-(3-phenyl(1,2,4-thiadiazol-5-yl))propanamide] |  | D (D=>20 uM) | 
31 | NC(=O)c1ccccc1-c1nnc(NCC2(c3ncccc3F)CCC2)s1 [2-(5-((1-(3-fluoropyridin-2-yl)cyclobutyl)methylamino)-1,3,4-thiadiazol-2-yl)benzamide] |  |  | Mean AC1.4 (Table 3): D (D=>20 uM)
